The values below come from patent publication US20210113602A1, “USE OF 6-THIO-2'-DEOXYGUANOSINE (6-THIO-dG) TO TREAT MELANOMA” (The Board of Regents of the University of Texas System, priority 2018, published 2021).

Entries after “also recorded” stand apart in the source; their conditions may differ.

The test system of series [1] is NRAS mutant melanoma cells. Put plainly: Telomere length, Southern blotting of TRF. The format is cell-based, human. The conditions noted are these: 1 μM for 14 days. As for the experimental part: (§1) FIGS. 2a-h. […] (FIGS. 2a-c) NRASmut melanoma cells (FIG. 2a), BRAF-V600E/NRAS mutant cells derived from melanoma patients resistant to BRAF/MEK inhibitors (FIG. 2b), or non-transformed melanocytes and fibroblasts (FIG. 2c) were treated with 6-thio-dG for 7 days. Cell viability was measured by Alamar Blue assay and calculated relative to DMSO-treated cells. (FIG. 2d) NRASmut melanoma cells and non-transformed human fibroblasts were treated with 1 or 5 μM 6-thio-dG for 7 or 14 days. Cell death was assessed by PSVUe staining. Percent of apoptotic cells is shown. (FIG. 2e) Cells were treated with DMSO or 1 μM 6-thio-dG for 14 days and telomere length was assessed by Southern blotting of TRF. Mean TRF length expressed as kilobase pairs is indicated at the bottom. (FIGS. 2f-g) Cells were treated with 1 μM 6-thio-dG for 7 days. (FIG. 2f) ROS production was measured by H2DCFDA fluorescence and normalized to MSO treated cells. (FIG. 2g) DNA damage was assessed by γH2AX staining. Data represent average from three independent experiments±SEM. *p<0.05; **p<0.01; ***p<0.005 in unpaired Student's t-test. […] Tumor volume was measured and average tumor volume (n=4)±SEM was plotted vs. time.
Telomere length assay. […] The images were analyzed with Phosphorimager, visualized by Typhoon 9410 Imager (GE Healthcare), and processed with ImageQuant 5.2 software (Molecular Dynamics).

The subject of series [2] is BRAF-V600E/NRAS mutant cells derived from melanoma patients resistant to BRAF/MEK inhibitors. Put plainly: Cell viability, Alamar Blue assay. The format is cell-based, human. The conditions noted are these: 7 days; relative to DMSO-treated cells. As for the experimental part: as §1, with “staining.” for “staining. Data represent average from three independent experiments±SEM. *p<0.05; **p<0.01; ***p<0.005 in unpaired Student's t-test.”
(§2) Cell culture, viability and cell death assays. […] Cell viability was assessed following 6 hr incubation with 500 μM Alamar Blue (ThermoFisher Scientific, Waltham, Mass.) using an EnVision Xcite Multilabel plate reader (Perkin Elmer, Waltham, Mass.). […]
In general terms: Resazurin is reduced to fluorescent resorufin, in cell work by metabolically active cells.

The subject of series [3] is NRAS mutant melanoma cells. As to the kind of experiment: Cell viability, Alamar Blue assay. In kind it is cell-based, human. The conditions noted are these: 7 days; relative to DMSO-treated cells. As to the method:
as §1, with “staining.” for “staining. Data represent average from three independent experiments±SEM. *p<0.05; **p<0.01; ***p<0.005 in unpaired Student's t-test.”
as §2

For series [4] the following is noted: in mice; cited from earlier work.
Series [5] has as its system NRAS mutant melanoma cells. As to the kind of experiment: Telomere dysfunction-induced foci (TIF) assay. In kind it is cell-based, human. The conditions noted are these: 6-thio-dG for 7 days. As to the method:
Supplementary FIGS. 6a-b. […] NRAS mutant melanoma cells WM3000 were transduced with TERT shRNA and treated with NAC […] for 7 days. (Supplementary FIG. 6a) TIFs were assessed by indirect immunofluorescence combined with fluorescence in situ hybridization (FISH). Representative images are shown (scale bar=10 μm). (Supplementary FIG. 6b) Quantification of TIF positive cells. Cells were scored as TIF positive when three or more y-H2AS foci (green) were co-localizing with telomere foci (red). Data represent average of thirteen fields imaged +/−SD.
Supplementary FIGS. 8a-d. NRAS mutant melanoma cells are sensitive to the telomere uncapping agent 6-thio-dG. NRAS^mut melanoma cells were treated with 6-thio-dG for 6, 12 or 18 days. (Supplementary FIG. 8a) Relative cell number was assessed by Cyrstal Violet assay and calculated relative to DMSO-treated cells. […] (Supplementary FIG. 8c) NRAS^mut cells were treated with 6-thio-dG for 7 days and telomere-induced foci (TIF) were determined by indirect immunofluorescence combined with fluorescence in situ hybridization (FISH). […] (Supplementary FIG. 8d) Quantification of TIF assay. Cells were scored as TIF-positive when four or more γ-H2AX foci (green) were co-localizing with telomere foci (red). […] P values were calculated by unpaired Student's t-test.
DNA damage and telomere dysfunction assay (TIF). […] Mean fluorescence staining was quantified by flow cytometry. […]

Turning to `Nc1nc2c(ncn2[C@H]2C[C@H](O)[C@@H](CO)O2)c(=S)[nH]1` [6-thio-dG, 6-thio-2′-deoxy-guanosine], the “telomere length (mean TRF)” value in series [1] was “without evidence for significant telomere shortening”. Also, in series [2], the cell viability result was “impaired the viability”. Moreover, in series [3], the cell viability result is reported as “impairs viability; also recorded: impaired the viability”. Moreover, in series [4], the “alanine aminotransferase (ALT)” value is on record as “no significant effects”, the “aspartate aminotransferase (AST)” value is on record as “no significant effects”, the creatinine levels result is given as “no significant effects” and the red blood cells entry was “no significant effects”. In series [4], the white blood cells entry is recorded as “no significant effects”. In series [5], the TIFs entry is reported as “increased levels”.
